“Also recorded” adds a separate entry of the source. Each block holds one molecule with its values, some of them ahead of it.
How the values were obtained:
pUC118 = assay: Photochemical DNA cleavage by Cu(II) diazo complex, agarose gel (Example VI); format: biochemical; settings: 25 μm, 20° C.; for DNA forms in thermal and photochemical control studies: 1 hour incubation or 455 nm light, lanes 3-11
Procedure: FIG. 10 illustrates DNA-cleavage of 50 μM pUC 118 plasmid DNA by bis(9-diazo-4,5-diazafluorene)copper(II) nitrate following 455 nm photolysis for 1 hour at 20° C. pursuant to 2% agarose gel electrophoresis.
FIG. 10 illustrates the DNA cleavage of 50 μM pUC118 by this compound following 455 nm photolysis for 1 hour at 20° C. (agarose gel, 2%).
Three forms of […] plasmid DNA were prepared for use in the […] assay. Form I was supercoiled plasmid. Form II was nicked plasmid. Form III was linear plasmid. The three plasmid forms were subjected to 11 lanes of varying conditions. Lane 1 pertained to the DNA forms alone. Lane 2 involved an EcoR1 digest of the DNA, which was used as a marker. In lane 3, the DNA was subjected for 1 hour to light at a wavelength of 455 nm. In lane 4, the DNA was subjected to 25 μm Cu(II) (diazafluorenone)2^2+ for 1 hour incubation. In lane 5, the DNA was subjected to 25 μm Cu(II) (diazafluorenone)2^2+ in the presence of light at a wavelength of 455 nm for 1 hour. Lane 6 subjected the DNA to 25 μm of 9-diazafluorene in the presence of light at a wavelength of 455 nm for 1 hour. In lane 7, the DNA was subjected to 25 μm 9-diazo-4,5-diazafluorene in the presence of light at a wavelength of 455 nm for 1 hour. In lane 8, the DNA was subjected to 25 μm bis(9-diazo-4,5-diazafluorene)copper(II) nitrate rapid quench. In lane 9, the DNA was subjected to 25 μm bis(9-diazo-4,5-diazafluorene)copper(II) nitrate for 1 hour incubation. In lane 10, the DNA was subjected to 25 μm bis(9-diazo-4,5-diazafluorene)copper(II) nitrate for 1 hour incubation at 37° C. In lane 11, the DNA was subjected to 25 μm bis(9-diazo-4,5-diazafluorene)copper(II) nitrate for 1 hour at a wavelength of 455 nm.

[1] = N2 extrusion on photolysis, headspace GC/MS; format: physicochemical; settings: degassed benzonitrile under argon, average of 4 trials
Procedure: To correlate the observed reactivity with N2 extrusion, a series of wavelength dependent photolyses were performed on 800 μL solutions of 5 under argon in degassed benzonitrile. From headspace GC/MS analysis, N2 production was gauged by comparison of the N2/O2 ratios above the photolyzed samples relative to unphotolyzed controls. […] Taken together, these experiments provide compelling evidence that the overall strategy to induce radical formation from CT excited states is indeed operative.

pUC 118 plasmid DNA = assay: Photoinduced cleavage of pUC 118 plasmid DNA by compound 5, agarose gel electrophoresis (Example IV); format: biochemical
Procedure: FIG. 8 illustrates the photoinduced DNA-cleavage of 30 μM/bp of pUC 118 plasmid DNA by 300 μM of compound 5 following 400 nm photolysis for 12 hours at 20° C. pursuant to 2% agarose gel electrophoresis.
Cleavage ability was determined by its effectiveness in converting circular supercoiled DNA (form I) to circular relaxed DNA (form II) and linear DNA (form III). FIG. 8 illustrates the agarose gel electrophoresis of photolysis products of 300 μM 5 in the presence of pUC 118 plasmid DNA (30 μM/bp). Solutions were irradiated for 12 hours in 1:9 DMSO:Tris buffer (20 mM, pH 7.55) at 400 nm. Photolyses were performed at 400 NM (rather than 455 NM) due to a soluatochronic blue shift in the optical absorption spectrum.

[2] = Anaerobic photolysis in acetonitrile at 345 nm and 455 nm monitored by UV/Vis spectrophotometry; format: physicochemical; settings: for kobs of photolysis (first order) / Photolysis reactivity of free ligand: acetonitrile; for kobs of photolysis (first order): anaerobic
Procedure: FIG. 7 depicts electronic absorption profiles of anaerobic photolyses of […] acetonitrile solutions of compound 5 at: (a) 345 nm; and (b) 455 nm.
Although the CT excited states appeared to satisfy the energy requirement, it was unknown if sufficient excited state lifetime existed to drive photodecomposition of the ligand. […] In both cases, significant photobleaching was observed, consistent with formation of Fe(II) in solution. This observation was further supported by the reemergence of color following aerial oxidation.
This can be attributed to the greater extinction coefficient at 345 nm (ε=9000 M^−1cm^−1) relative to 455 nm (ε=5450 M^−1cm^−1), and the simultaneous excitation of the LMCT and n-π* transitions of the Fe(III) compound, both of which lead to denitrogenation.
To investigate this dual state hypothesis, identical photolyses were carried out on solutions of 4 in acetonitrile.

[3] = Thermal reactivity of Pd metalloenediynes; format: physicochemical; settings: room temperature
Procedure: The thermal reactivity of the complex was as follows. […] The reaction was followed by ^31p NMR analysis. The chemical shift of the complex was −5.71 ppm while that of the free ligand was −32.1 ppm. After 11 hours, there was evidence of the complex, free ligand, and 2 other resonances at −10.6 ppm and 25.4 ppm. […] A shift downfield was expected for the cyclized product and this could help explain the resonance at 25.4 ppm. […] What may have happened is that a ligand dissociated from the metal after cyclizing (−10.6 ppm) and then it reassociated with the metal (25.5 ppm). From the crystal structure, the environment around the metal was strained as is evident in the Pd—P—C bending. Additionally, the bite-angle of the resulting cyclized product, 1,2-bis(diphenylphosphino)naphthalene, would be smaller than that which would be required for tetrahedral geometry. This dissociation/reassociation may be slow enough to be detected on the NMR timescale.
Although crystallographic structural characterization of Pd(dppeb)Cl2 is unavailable, the d^8 Pd2^+ geometry is likely square planar with P—Pd—P angles near 90° which would reduce the alkyne carbon termini distances and lower the thermal barrier to cyclization. […]

[4] = literature values; cited from earlier work
[5] = 95° C. for several days; cited from earlier work
HIV = settings: human, in vivo; cited from earlier work

Compound: [N-]=[N+]=C1c2cccnc2-c2ncccc21 [9-diazo-4,5-diazafluorene, reference compound]
- DNA forms in thermal and photochemical control studies (pUC118): very small and comparable amounts of the nicked form; also recorded: did not exhibit any preferential thermal or photochemical DNA cleavage

- Increased N2 content versus unphotolyzed controls ([1]; 345 nm): 112%
- Increased N2 content versus unphotolyzed controls ([1]; 455 nm): 9.7%
- Wavelength up to which reactivity was demonstrated [2]: up to 515 nm
Compound: O=c1c2ccccc2nnn1[O-].O=c1c2ccccc2nnn1[O-].O=c1c2ccccc2nnn1[O-].[Fe+3] [Compound 5, Fe(3-Hydroxy-1,2,3-benzotriazine-4(3H)-one)3]
- DNA forms produced by photolysis (form I supercoiled, form II nicked, form III linear) (pUC 118 plasmid DNA; 300 μM 5, pUC 118 30 μM/bp, 400 nm, 12 hours, 1:9 DMSO:Tris buffer (20 mM, pH 7.55), lane 3): a mixture of linear and nicked forms
- DNA cleavage on thermal incubation (pUC 118 plasmid DNA; similar thermal incubation without light, lane 4): no DNA cleavage
- kobs of photolysis (first order) ([2]; 345 nm): 0.093 min⁻¹
- kobs of photolysis (first order) ([2]; 455 nm): 0.004 min⁻¹

Compound: C(#CP(c1ccccc1)c1ccccc1)c1ccccc1C#CP(c1ccccc1)c1ccccc1.C(#CP(c1ccccc1)c1ccccc1)c1ccccc1C#CP(c1ccccc1)c1ccccc1.[Pd] [Pd(dppeb)2]
- Thermal stability [3]: stable at room temperature

Compound: C(#CP(c1ccccc1)c1ccccc1)c1ccccc1C#CP(c1ccccc1)c1ccccc1
- Bergman cyclization temperature reported in the literature [4]: 243 °C
- Thermal stability in the presence of a hydrogen donor [5]: stable

Compound: O=[N+]([O-])[O-].O=[N+]([O-])[O-].[Cu+2].[N-]=[N+]=C1c2cccnc2-c2ncccc21.[N-]=[N+]=C1c2cccnc2-c2ncccc21 [bis(9-diazo-4,5-diazafluorene)copper(II) nitrate]
- DNA forms in thermal and photochemical control studies (pUC118): very small and comparable amounts of the nicked form
- DNA forms after photolysis (pUC118; 455 nm, 1 hour, 10 mM Tris pH 7.6, 50 μM pUC118, lane 11): predominantly nicked DNA with a moderate amount of the linear form

Compound: Nc1ccn([C@H]2CC[C@@H](CO)O2)c(=O)n1 [ddC, 2′3′-dideoxycytidine]
- Virustatic range in most patients (HIV): 0.005-0.25 mg/kg body weight

- Photolysis reactivity of free ligand ([2]; 345 nm): noticeably reduced reaction rate
- Photolysis reactivity of free ligand ([2]; 455 nm): no reactivity
Compound: O=c1c2ccccc2nnn1O [Compound 4, 3-Hydroxy-1,2,3-benzotriazine-4(3H)-one, reference compound]
- DNA forms produced by photolysis of free ligand (pUC 118 plasmid DNA; 900 μM free ligand, 400 nm, 12 hours, lane 6): a small amount of form II

Reference: US6828439B1, “Compounds, composition, and methods for photodynamic therapy” (Advanced Research and Technology Institute, Inc., priority 1999, dated 2004)
